Measurements taken from the supplement of paper PMC11061612.

Tests used:
Assay in all cases: Bliss excess, mean over the matrix (fraction); higher = more synergy
[1] = tested on: huH-1 (Hepatocellular Carcinoma)
How it was run: (§1)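 Bliss excess equals the observed combination effect minus the expected value EA + EB − EA·EB, where EA and EB are the effects of each agent alone. Combination Emax is the second-highest inhibition within the matrix. Inhibition was scaled from CellTiter-Glo 2.0 luminescence, with 0 set by vehicle wells and 1 by blank wells, after 72 hours of two-drug dosing of cells plated in 1536-well plates.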

[2] = tested on: CESS (Acute Myeloid Leukemia)
How it was run: as §1

[3] = tested on: NCI-H2228 (Lung Adenocarcinoma)
How it was run: as §1

[4] = tested on: A204 (Rhabdomyosarcoma)
How it was run: as §1

[5] = tested on: ESO26 (Esophageal Adenocarcinoma)
How it was run: as §1

[6] = tested on: LS-411N (Colorectal Carcinoma)
How it was run: as §1

[7] = tested on: EW-16 (Ewing's Sarcoma)
How it was run: as §1

[8] = tested on: Jurkat (T-Lymphoblastic Leukemia)
How it was run: as §1

[9] = tested on: NB13 (Neuroblastoma)
How it was run: as §1

[10] = tested on: EPLC-272H (Other Solid Carcinomas)
How it was run: as §1

[11] = tested on: 5637 (Bladder Carcinoma)
How it was run: as §1

[12] = tested on: G-402 (Other Solid Carcinomas)
How it was run: as §1

[13] = tested on: GCT (Other Solid Carcinomas)
How it was run: as §1

[14] = tested on: RH-41 (Rhabdomyosarcoma)
How it was run: as §1

[15] = tested on: OACp4C (Esophageal Adenocarcinoma)
How it was run: as §1

[16] = tested on: CAL-27 (Oral Cavity Carcinoma)
How it was run: as §1

[17] = tested on: HT55 (Colorectal Carcinoma)
How it was run: as §1

[18] = tested on: AU565 (Breast Carcinoma)
How it was run: as §1

[19] = tested on: KP-N-YN (Neuroblastoma)
How it was run: as §1

[20] = tested on: HCC1428 (Breast Carcinoma)
How it was run: as §1

Compound | Bliss excess [1] | Bliss excess [2] | Bliss excess [3] | Bliss excess [4] | Bliss excess [5] | Bliss excess [6] | Bliss excess [7] | Bliss excess [8] | Bliss excess [9] | Bliss excess [10] | Bliss excess [11] | Bliss excess [12] | Bliss excess [13] | Bliss excess [14] | Bliss excess [15] | Bliss excess [16] | Bliss excess [17] | Bliss excess [18] | Bliss excess [19] | Bliss excess [20]
Cc1cc2ncnn2cc1Nc1ncc2c(n1)n(C1CCOCC1)c(=O)n2C [AZD7648] + CCN(CCO)CCCOc1ccc2c(Nc3cc(CC(=O)Nc4cccc(F)c4)[nH]n3)ncnc2c1 [AZD2811] (first compound max 10 µM, 7x7, partner max 1 µM) | 0.0008 | 0.0195 | -0.0127 | 0.0034 | -0.0299 | 0.0255 | 0.0436 | -0.01 | 0.056 | 0.0143 | 0.0149 | 0.0421 | 0.0625 | 0.0902 | 0.0003 | 0.0107 | -0.0003 | 0.0433 | 0.0461 | 0.0436
Cc1cc2ncnn2cc1Nc1ncc2c(n1)n(C1CCOCC1)c(=O)n2C [AZD7648] + CN(C)CCCOc1ccc(-c2ccc3ncc4c(c3c2)n(C2CCOCC2)c(=O)n4C)cn1 [AZD0156] (first compound max 10 µM, 7x7, partner max 1 µM) | 0.0674 | -0.0013 | 0.0707 | -0.0372 | -0.031 | -0.0081 | 0.0073 | 0.0382 | -0.0173 | -0.0251 | -0.0004 | -0.0271 | 0.0042 | 0.0197 | 0.0043 | 0.0004 | 0.0035 | 0.0589 | 0.0088 | -0.0052
Cc1cc2ncnn2cc1Nc1ncc2c(n1)n(C1CCOCC1)c(=O)n2C [AZD7648] + C[C@@H]1COCCN1C2=NC(=NC(=C2)C3(CC3)[S@](=N)(=O)C)C4=C5C=CNC5=NC=C4 [AZD6738] (first compound max 10 µM, 7x7, partner max 10 µM) | 0.02 | 0.0058 | -0.0156 | -0.0105 | -0.0389 | -0.0185 | 0.0269 | 0.011 | -0.0124 | -0.0093 | -0.0289 | 0.0185 | 0.0097 | 0.0098 | -0.0284 | -0.0327 | 0.0268 | 0.0393 | -0.0083 | -0.0086
Cc1cc2ncnn2cc1Nc1ncc2c(n1)n(C1CCOCC1)c(=O)n2C [AZD7648] + O=C(c1cc(Cc2n[nH]c(=O)c3ccccc23)ccc1F)N1CCN(C(=O)C2CC2)CC1 [Olaparib] (first compound max 10 µM, 7x7, partner max 10 µM) | -0.0557 | -0.0101 | -0.0728 | -0.0802 | -0.003 | -0.0195 | -0.0484 | 0.108 | -0.0247 | 0.0608 | -0.0198 | -0.0814 | -0.0488 | -0.0293 | -0.0203 | -0.0448 | -0.0497 | -0.0658 | 0.0332 | -0.0562
Cc1nc(Nc2ncc(C(=O)Nc3c(C)cccc3Cl)s2)cc(N2CCN(CCO)CC2)n1 [Dasatinib] + CC(=O)Nc1cccc(-n2c(=O)n(C3CC3)c(=O)c3c(Nc4ccc(I)cc4F)n(C)c(=O)c(C)c32)c1 [Trametinib] (first compound max 2 µM, 7x7, partner max 1 µM) | -0.0076 | -0.0622 | -0.049 | -0.0955 | -0.0892 | 0.0509 | -0.0358 | -0.0746 | -0.0347 | -0.0746 | 0.0923 | -0.0618 | -0.119 | -0.0946 | 0.01 | -0.053 | -0.032 | -0.0345 | -0.0983 | -0.0334
COc1cc2ncnc(Nc3ccc(F)c(Cl)c3)c2cc1OCCCN1CCOCC1 [Gefitinib] + CC(C)n1c(=O)n(C)c2cnc3cc(F)c(-c4ccc(OCCCN5CCCCC5)nc4)cc3c21 [AZD1390] (first compound max 10 µM, 7x7, partner max 0.3 µM) | -0.0593 | -0.0386 | -0.0704 | -0.0563 | -0.0832 | -0.0463 | -0.0566 | -0.0756 | -0.0433 | -0.0207 | -0.0467 | -0.0659 | -0.065 | -0.0378 | -0.067 | -0.0668 | -0.0393 | -0.0219 | -0.045 | -0.0393
COc1cc2c(cc1OCCCCCOc1cc3c(cc1OC)C(=O)N1C=C(C)C[C@H]1C=N3)N=C[C@@H]1CC(C)=CN1C2=O [SG3199] + O=C(c1cc(Cc2n[nH]c(=O)c3ccccc23)ccc1F)N1CCN(C(=O)C2CC2)CC1 [Olaparib] (first compound max 0.001 µM, 7x7, partner max 10 µM) | -0.0278 | -0.0156 | -0.0607 | -0.0686 | 0.0119 | -0.0255 | -0.0066 | 0.0874 | -0.0143 | -0.0023 | -0.0278 | -0.0289 | -0.0325 | 0.0396 | -0.0268 | -0.0664 | -0.0358 | -0.0315 | -0.0387 | -0.0676
C[C@@H](c1ccc2nccn2c1)n1nnc2ncc(-c3cnn(C)c3)nc21 [Savolitinib] + CC1(C)CCC(CN2CCN(c3ccc(C(=O)NS(=O)(=O)c4ccc(NCC5CCOCC5)c([N+](=O)[O-])c4)c(Oc4cnc5[nH]ccc5c4)c3)CC2)=C(c2ccc(Cl)cc2)C1 [Venetoclax] (first compound max 1 µM, 7x7, partner max 1 µM) | -0.0804 | -0.0517 | -0.0605 | -0.0629 | -0.0547 | -0.0349 | -0.0873 | -0.0723 | -0.073 | -0.0604 | -0.0523 | -0.067 | -0.0727 | -0.0483 | -0.0367 | -0.0571 | -0.0562 | -0.0255 | -0.0927 | -0.0219
C[C@@H](c1ccc2nccn2c1)n1nnc2ncc(-c3cnn(C)c3)nc21 [Savolitinib] + Cc1c2c(nn1C)CSCc1cc(n(C)n1)CSc1cc(c3ccccc3c1)OCCCc1c(C(=O)O)n(C)c3c-2c(Cl)ccc13 [AZD5991] (first compound max 1 µM, 7x7, partner max 1 µM) | -0.0586 | -0.048 | -0.0577 | -0.0502 | -0.0026 | -0.0232 | -0.032 | -0.103 | -0.0206 | -0.0128 | -0.0456 | -0.0611 | -0.054 | 0.0471 | -0.0328 | -0.0839 | -0.0697 | 0.0125 | 0.0028 | -0.0039
